These results are taken from EP1319663A1, “Antidepressant folic -, folinic- and glutamic-acid lithium salts” (Dospharma S.A., priority 2001, dated 2003).

Series [1] deals with rats rendus dépressifs. Description: Modified one-way avoidance test in rat (second depression model). In kind it is in vivo. The conditions noted are these: dose de 1 mg/kg; per os, twice daily, eight days. From the text: (§1) L'activité antidépressive du mélange folate de lithium - glutamate de lithium a été étudiée sur deux modèles de rats rendus dépressifs. On a utilisé comme molécule de référence, la desméthylimipramine (DMI) et comme produit de comparaison un mélange de carbonate de lithium, d'acide folique et d'acide glutamique dans les mêmes proportions que l'association selon l'invention. Les traitements ont été poursuivis per os avec administration biquotidienne durant huit jours.
Le second test pratiqué est un test à voie unique (one-way)modifié. Dans un premier temps on apprend aux rats à passer d'un compartiment à un autre pour éviter un choc électrique. Les rats sélectionnés qui donnent systématiquement la réponse d'évitement sont placés dans un système à quatre compartiments avec retour au premier compartiment. Les animaux apprennent à éviter le choc électrique en passant du compartiment I à II, puis II à III et […]. Le passage de IV vers I pose un problème puisque les rats reconnaissent (ou sentent) le point de départ.
Les rats s'immobilisent en position de « freezing » en dépit des décharges électriques qu'ils reçoivent. Le temps requis pour amener l'immobilisation correspond à une phase de dépression.

The test system of series [2] is rats rendus dépressifs. Description: Despair test in rat (first depression model). It counts as in vivo. The conditions noted are these: dose de 10 mg; per os, twice daily, eight days.
Text: as §1
Le premier modèle utilisé est le test du désespoir chez le rat (Despair Test). Les rats sont placés pour ce test dans une cuve d'eau tiédie à 27°C sans possibilité de s'échapper. Après une nage de quelques minutes, les animaux s'immobilisent et le temps moyen d'immobilité est chronométré. Il correspond à la phase de dépression. La DMI (antidépresseur de référence) à la dose de 10 mg diminue de 50 % ce temps d'immobilisation. Une courbe effet-dose a été établie avec l'association folate de lithium-glutamate de lithium. Un effet est observé dès la dose de 1 mg/kg. Il est maximum avec une dose de 20 mg/kg. A titre de comparaison, le lithium administré, sous forme de carbonate de lithium avec un mélange d'acide folique et d'acide glutamique, est moins actif sur ce modèle. On constate une potentialisation des effets du lithium lorsqu'il est administré sous forme de folate de lithium et de glutamate de lithium.

The nature of series [3]: Solubility of the lithium salts. In kind it is physicochemical. The note with it: solvents as named in the value.

Regarding `CNCCCN1c2ccccc2CCc2ccccc21` [DMI, desméthylimipramine], the “effet sur le temps d'immobilisation (freezing)” value in the series on rats rendus dépressifs [1] is on record as “supprime complètement ce temps d'immobilisation”. Also, the “diminution du temps d'immobilisation” value in the series with rats rendus dépressifs [2] is on record as 50%.
Regarding folinate de lithium [folinate lithié], the solubilité entry in series [3] was “solubles dans l'eau et les alcools”.
Still for that read-out and setting: next, folate de lithium: “solubles dans l'eau et les solvants hydroxylés”.
